Assay results taken from US10765114B2, “4-amino-6-(pyridyl and 2-substitutedphenyl)-picolinates and 6-amino-2-(pyridyl and 2-substitutedphenyl)-pyrimidine-4-carboxylates and their use as herbicides” (Dow AgroSciences LLC, priority 2013, dated 2020).

How the values were obtained:
Assay in all cases: Post-Emergent Test III (Wheat and Barley)
KCHSC (kochia) = type: in vivo, Kochia scoparia; details: for pest or weed control at 17.5 g/ha / pest or weed control at 35 g/ha / pest or weed control at 70 g/ha: Bassia scoparia, post-emergence, 504 h, KCHSC kochia (Kochia scoparia), post-emergent, read-out: Visual Growth Reduction (%) 21 Days After Application, KCHSC; for pest or weed control at 17.5 g/ha: 17.5 g ai/ha; for pest or weed control at 35 g/ha: 35 g ai/ha; for pest or weed control at 70 g/ha: 70 g ai/ha; for GR50, KCHSC: growth reduction of 50%; for GR50, KCHSC / GR80, KCHSC / GR90, KCHSC: probit analysis, 21 days; for GR80, KCHSC: growth reduction of 80%; for GR90, KCHSC: growth reduction of 90%
Procedure, shortened: (§1)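 GR10-GR90 values were derived by probit analysis of visual injury (0 = no injury, 100 = complete kill versus untreated), rated 21 days after spraying. Two- to three-true-leaf plants were sprayed at 187 L/ha with serial rates (1× to 1/16×) in aqueous acetone/isopropanol/DMSO with crop oil and X-77. Greenhouse conditions were 18 °C day/17 °C night.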

HORSS = type: in vivo; details: crop; for Visual Growth Reduction (%) 21 Days After Application, HORSS: HORSS barley (Hordeum vulgare), post-emergent; for GR10, HORSS / GR20, HORSS: HORSS barley, probit analysis, 21 days; for GR10, HORSS: growth reduction of 10%; for GR20, HORSS: growth reduction of 20%
Procedure, shortened: as §1

TRZSS = type: in vivo; details: crop; for Visual Growth Reduction (%) 21 Days After Application, TRZSS: TRZSS wheat (Triticum aestivum), post-emergent; for GR10, TRZSS / GR20, TRZSS: TRZSS wheat, probit analysis, 21 days; for GR10, TRZSS: growth reduction of 10%; for GR20, TRZSS: growth reduction of 20%
Procedure, shortened: as §1

PAPRH (common poppy) = type: in vivo, Papaver rhoeas; details: for Visual Growth Reduction (%) 21 Days After Application, PAPRH: PAPRH common poppy (Papaver rhoeas), post-emergent; for GR50, PAPRH: growth reduction of 50%; for GR50, PAPRH / GR80, PAPRH / GR90, PAPRH: probit analysis, 21 days; for GR80, PAPRH: growth reduction of 80%; for GR90, PAPRH: growth reduction of 90%
Description: (§2) Seeds of the desired test plant species were planted in Sun Gro MetroMix® 306 planting mixture, which typically has a pH of 6.0 to 6.8 and an organic matter content of about 30 percent, in plastic pots with a surface area of 103.2 square centimeters (cm^2). When required to ensure good germination and healthy plants, a fungicide treatment and/or other chemical or physical treatment was applied. The plants were grown for 7-36 days in a greenhouse with an approximate 14 h photoperiod which was maintained at about 18° C. during the day and 17° C. during the night. Nutrients and water were added on a regular basis and supplemental lighting was provided with overhead metal halide 1000-Watt lamps as necessary. The plants were employed for testing when they reached the second or third true leaf stage.
(§3) A weighed amount, determined by the highest rate to be tested, of each test compound was placed in a 25 mL glass vial and was dissolved in 4 mL of a 97:3 v/v mixture of acetone and DMSO to obtain concentrated stock solutions. […] The concentrated stock solutions obtained were diluted with 20 mL of an aqueous mixture containing acetone, water, isopropyl alcohol, DMSO, Agri-Dex crop oil concentrate, and X-77 surfactant in a 48:39:10:1.5:1.5:0.02 v/v ratio to obtain spray solutions containing the highest application rates. Additional application rates were obtained by serial dilution of 12 mL of the high rate solution into a solution containing 2 mL of 97:3 v/v mixture of acetone and DMSO and 10 mL of an aqueous mixture containing acetone, water, isopropyl alcohol, DMSO, Agri-Dex crop oil concentrate, and X-77 surfactant in a 48:39:10:1.5:1.5:0.02 v/v ratio to obtain ½×, ¼×, ⅛× and 1/16× rates of the high rate. Compound requirements are based upon a 12 mL application volume at a rate of 187 liters per hectare (L/ha). Formulated compounds were applied to the plant material with an overhead Mandel track sprayer equipped with 8002E nozzles calibrated to deliver 187 L/ha over an application area of 0.503 square meters at a spray height of 18 inches (43 cm) above the average plant canopy height. Control plants were sprayed in the same manner with the solvent blank.
(§4) The treated plants and control plants were placed in a greenhouse as described above and watered by subirrigation to prevent wash-off of the test compounds. After 21 dAYS, the condition of the test plants as compared with that of the untreated plants was determined visually and scored on a scale of 0 to 100 percent where 0 corresponds to no injury and 100 corresponds to complete kill and presented as indicated in Table A.
(§5) By applying the well-accepted probit analysis as described by J. Berkson in Journal of the American Statistical Society, 48, 565 (1953) and by D. Finney in “Probit Analysis” Cambridge University Press (1952), herbicidal injury of a specific compound at various rates can be used to calculate GR10, GR20, GR50, GR80 and GR90 values, which are defined as growth reduction factors that correspond to the effective dose of herbicide required to provide plant growth reduction (GR) of 10 percent, 20 percent, 50 percent, 80 percent and 90 percent, respectively. Probit analysis was applied to data collected from multiple dose rates of individual compounds utilizing the procedures explained in the following examples. The analysis of those dose rates is captured in the following tables.

POLCO (wild buckwheat) = type: in vivo, Polygonum convolvulus; details: for Visual Growth Reduction (%) 21 Days After Application, POLCO: POLCO wild buckwheat (Polygonum convolvulus), post-emergent; for GR50, POLCO: growth reduction of 50%; for GR50, POLCO / GR80, POLCO / GR90, POLCO: probit analysis, 21 days; for GR80, POLCO: growth reduction of 80%; for GR90, POLCO: growth reduction of 90%
Description: as §2, §3, §4, §5

SASKR (Russian thistle) = type: in vivo, Salsola tragus; details: for Visual Growth Reduction (%) 21 Days After Application, SASKR: SASKR Russian thistle (Salsola iberica), post-emergent; for GR50, SASKR: growth reduction of 50%; for GR50, SASKR / GR80, SASKR / GR90, SASKR: probit analysis, 21 days; for GR80, SASKR: growth reduction of 80%; for GR90, SASKR: growth reduction of 90%
Description: as §2, §3, §4, §5

[1] = tested on: VERPE (Persian speedwell); type: in vivo, Veronica persica; details: for Visual Growth Reduction (%) 21 Days After Application, VERPE: VERPE bird's-eye speedwell (Veronica persica), post-emergent; for GR50, VERPE: growth reduction of 50%; for GR50, VERPE / GR80, VERPE / GR90, VERPE: probit analysis, 21 days; for GR80, VERPE: growth reduction of 80%; for GR90, VERPE: growth reduction of 90%
Description: as §2, §3, §4, §5

| SMILES | pest or weed control at 17.5 g/ha (KCHSC (kochia)) [%] | pest or weed control at 35 g/ha (KCHSC (kochia)) [%] | pest or weed control at 70 g/ha (KCHSC (kochia)) [%] | GR50, KCHSC (KCHSC (kochia)) [g ai/ha] | GR80, KCHSC (KCHSC (kochia)) [g ai/ha] | GR90, KCHSC (KCHSC (kochia)) [g ai/ha] | Visual Growth Reduction (%) 21 Days After Application, HORSS (HORSS; 17.5 g ai/ha) | Visual Growth Reduction (%) 21 Days After Application, HORSS (HORSS; 35 g ai/ha) | Visual Growth Reduction (%) 21 Days After Application, HORSS (HORSS; 70 g ai/ha) | GR10, HORSS (HORSS) [g ai/ha] | GR20, HORSS (HORSS) [g ai/ha] | Visual Growth Reduction (%) 21 Days After Application, TRZSS (TRZSS; 17.5 g ai/ha) | Visual Growth Reduction (%) 21 Days After Application, TRZSS (TRZSS; 35 g ai/ha) | Visual Growth Reduction (%) 21 Days After Application, TRZSS (TRZSS; 70 g ai/ha) | GR10, TRZSS (TRZSS) [g ai/ha] | GR20, TRZSS (TRZSS) [g ai/ha] | Visual Growth Reduction (%) 21 Days After Application, PAPRH (PAPRH (common poppy); 17.5 g ai/ha) | Visual Growth Reduction (%) 21 Days After Application, PAPRH (PAPRH (common poppy); 35 g ai/ha) | Visual Growth Reduction (%) 21 Days After Application, PAPRH (PAPRH (common poppy); 70 g ai/ha) | GR50, PAPRH (PAPRH (common poppy)) [g ai/ha] | other results |
| --- | --- | --- | --- | --- | --- | --- | --- | --- | --- | --- | --- | --- | --- | --- | --- | --- | --- | --- | --- | --- | --- |
| COC(=O)c1nc(-c2ccc(Br)nc2)c(F)c(N)c1Cl [Compound 22, methyl 4-amino-6′-bromo-5-chloro-3-fluoro-[2,3′-bipyridine]-6-carboxylate] | 95 to 100 | 95 to 100 | 95 to 100 | 3 | 8 | 14 | B (85-94) | B (85-94) | A (95-100) | 1 | 1 | C (75-84) | B (85-94) | B (85-94) | 1 | 1 | A (95-100) | A (95-100) | A (95-100) | 1 | GR80, PAPRH (PAPRH (common poppy)): 1 g ai/ha; GR90, PAPRH (PAPRH (common poppy)): 1 g ai/ha; Visual Growth Reduction (%) 21 Days After Application, POLCO (POLCO (wild buckwheat); 17.5 g ai/ha): E (45-59); Visual Growth Reduction (%) 21 Days After Application, POLCO (POLCO (wild buckwheat); 35 g ai/ha): E (45-59); Visual Growth Reduction (%) 21 Days After Application, POLCO (POLCO (wild buckwheat); 70 g ai/ha): D (60-74); GR50, POLCO (POLCO (wild buckwheat)): 26 g ai/ha; GR80, POLCO (POLCO (wild buckwheat)): >140 g ai/ha; GR90, POLCO (POLCO (wild buckwheat)): >140 g ai/ha; Visual Growth Reduction (%) 21 Days After Application, SASKR (SASKR (Russian thistle); 17.5 g ai/ha): C (75-84); Visual Growth Reduction (%) 21 Days After Application, SASKR (SASKR (Russian thistle); 35 g ai/ha): C (75-84); Visual Growth Reduction (%) 21 Days After Application, SASKR (SASKR (Russian thistle); 70 g ai/ha): B (85-94); GR50, SASKR (SASKR (Russian thistle)): 5 g ai/ha; GR80, SASKR (SASKR (Russian thistle)): 36 g ai/ha; GR90, SASKR (SASKR (Russian thistle)): 95 g ai/ha; Visual Growth Reduction (%) 21 Days After Application, VERPE ([1]; 17.5 g ai/ha): D (60-74); Visual Growth Reduction (%) 21 Days After Application, VERPE ([1]; 35 g ai/ha): C (75-84); Visual Growth Reduction (%) 21 Days After Application, VERPE ([1]; 70 g ai/ha): A (95-100); GR50, VERPE [1]: 9 g ai/ha; GR80, VERPE [1]: 28 g ai/ha; GR90, VERPE [1]: 50 g ai/ha |
| Cc1c(-c2cc(N)c(Cl)c(C(=O)O)n2)ccc(Cl)c1Cl [Compound 28] | 75 to 84 | 75 to 84 | 95 to 100 | 3 | 21 | 54 | G (0-29) | F (30-44) | F (30-44) | 3 | 13 | G (0-29) | F (30-44) | E (45-59) | 16 | 25 | G (0-29) | G (0-29) | G (0-29) | >140 | GR80, PAPRH (PAPRH (common poppy)): >140 g ai/ha; GR90, PAPRH (PAPRH (common poppy)): >140 g ai/ha; Visual Growth Reduction (%) 21 Days After Application, POLCO (POLCO (wild buckwheat); 17.5 g ai/ha): A (95-100); Visual Growth Reduction (%) 21 Days After Application, POLCO (POLCO (wild buckwheat); 35 g ai/ha): A (95-100); Visual Growth Reduction (%) 21 Days After Application, POLCO (POLCO (wild buckwheat); 70 g ai/ha): A (95-100); GR50, POLCO (POLCO (wild buckwheat)): 1 g ai/ha; GR80, POLCO (POLCO (wild buckwheat)): 1 g ai/ha; GR90, POLCO (POLCO (wild buckwheat)): 4 g ai/ha; Visual Growth Reduction (%) 21 Days After Application, SASKR (SASKR (Russian thistle); 17.5 g ai/ha): C (75-84); Visual Growth Reduction (%) 21 Days After Application, SASKR (SASKR (Russian thistle); 35 g ai/ha): B (85-94); Visual Growth Reduction (%) 21 Days After Application, SASKR (SASKR (Russian thistle); 70 g ai/ha): A (95-100); GR50, SASKR (SASKR (Russian thistle)): 2 g ai/ha; GR80, SASKR (SASKR (Russian thistle)): 17 g ai/ha; GR90, SASKR (SASKR (Russian thistle)): 47 g ai/ha; Visual Growth Reduction (%) 21 Days After Application, VERPE ([1]; 17.5 g ai/ha): G (0-29); Visual Growth Reduction (%) 21 Days After Application, VERPE ([1]; 35 g ai/ha): F (30-44); Visual Growth Reduction (%) 21 Days After Application, VERPE ([1]; 70 g ai/ha): E (45-59); GR50, VERPE [1]: 63 g ai/ha; GR80, VERPE [1]: 111 g ai/ha; GR90, VERPE [1]: >140 g ai/ha |
